Some test systems named below: T-47D breast; MCF7 breast; HL-60(TB) leukemia; CCRF-CEM leukemia; COLO 205 colon; HS 578T breast; SK-MEL-28 melanoma; SNB-19 CNS; NCI-H522 lung; A549 NSCLC; K-562 leukemia; HOP-62 NSCLC; HT29 colon; NCI-H226 lung; TK-10 renal.
Holding throughout (test): growth of human tumour cells (NCI), 48 h

Each structure is given as a SMILES string. “And” between values parts separate entries of the source, which are not always exact repeats. Equal entries are not always repeated.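 Results reflect a 48-hour exposure of cells in 96-well plates to compound at five concentrations. Here, GI50 denotes the concentration required for 50% inhibition of growth. At the TGI there is no net growth.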

Regarding `Cc1ccc(/C=N/n2c(-c3ccc(C)cc3)n[nH]c2=O)cc1`, the TGI in the test with T-47D breast, in the test on MCF7 breast, in the test with HL-60(TB) leukemia, in the test on CCRF-CEM leukemia, in the test on COLO 205 colon and with HS 578T breast was above 100 µM each time. For the same compound, the TGI in the test with SK-MEL-28 melanoma, with SNB-19 CNS, with NCI-H522 lung, in the test with A549 NSCLC, with K-562 leukemia and in the test with HOP-62 NSCLC was above 100 µM throughout. The TGI with HT29 colon, with NCI-H226 lung and in the test on TK-10 renal was above 100 µM in each case.
On to `O=C1C(Br)=C(c2ccccc2)O/C1=C/C(=O)c1ccc(Br)cc1`, for which the TGI with T-47D breast is above 100 µM; in the test with MCF7 breast, above 100 µM; in the test with HL-60(TB) leukemia, 52.4 µM; in the test with CCRF-CEM leukemia it was above 100 µM; in the test on COLO 205 colon, above 100 µM; in the test with HS 578T breast it was above 100 µM. Further, the TGI in the test on SK-MEL-28 melanoma was above 100 µM; with SNB-19 CNS, above 100 µM; in the test on NCI-H522 lung it was 39.1 µM; in the test with K-562 leukemia, above 100 µM; with HOP-62 NSCLC, above 100 µM; in the test with HT29 colon, above 100 µM. For the same compound, the TGI with NCI-H226 lung and in the test on TK-10 renal was above 100 µM each time.
Turning to `O=C(O)C(O)C(O)C(=O)O` (stereo not drawn), the TGI with T-47D breast, with MCF7 breast, in the test on HL-60(TB) leukemia, in the test on CCRF-CEM leukemia, with COLO 205 colon and in the test on HS 578T breast was above 100 µM each time. In addition, the TGI with SK-MEL-28 melanoma, in the test on SNB-19 CNS, in the test on NCI-H522 lung, in the test on A549 NSCLC, with K-562 leukemia and in the test with HOP-62 NSCLC was above 100 µM each time. For the same compound, the TGI in the test on HT29 colon, in the test with NCI-H226 lung and in the test on TK-10 renal was above 100 µM throughout.
With `CC(C)(C)OC(=O)N(CCCCNC(=O)OCc1ccccc1)CCCNC(=O)OCc1ccccc1`, the TGI with T-47D breast is above 100 µM; with MCF7 breast it was above 100 µM; in the test with HL-60(TB) leukemia, 53.9 µM; with CCRF-CEM leukemia it was above 100 µM; with COLO 205 colon, above 100 µM; in the test with HS 578T breast it was above 100 µM. The TGI in the test on SK-MEL-28 melanoma was above 100 µM; in the test on SNB-19 CNS, above 100 µM; in the test with NCI-H522 lung, 19.4 µM; in the test with A549 NSCLC, above 100 µM; in the test with K-562 leukemia, above 100 µM; in the test with HOP-62 NSCLC, above 100 µM. Further, the TGI with HT29 colon, with NCI-H226 lung and in the test with TK-10 renal was above 100 µM each time.
Take `O=S(=O)(Nc1nc2ccccc2nc1Nc1ccc2ccccc2c1)c1ccccc1`: the TGI in the test on T-47D breast is above 100 µM; with MCF7 breast it was above 100 µM; in the test with HL-60(TB) leukemia, 68.9 µM; in the test on CCRF-CEM leukemia it was above 77.3 µM; in the test with COLO 205 colon it was 26.3 µM; in the test on HS 578T breast it was above 74.5 µM. The TGI in the test with SK-MEL-28 melanoma is above 100 µM; with SNB-19 CNS it was above 100 µM; in the test with NCI-H522 lung, 39.6 µM; with A549 NSCLC, above 100 µM; in the test on K-562 leukemia, above 100 µM; with HOP-62 NSCLC, 30.8 µM. Moreover, the results for the TGI in the test with HT29 colon, in the test on NCI-H226 lung and in the test with TK-10 renal were 25.1 µM, above 84.2 µM and above 82.7 µM, respectively.
With `CCN(CC)CCCNc1ccc2nc(C)n3c4ccc(O)cc4c(=O)c1c23`, the TGI in the test with T-47D breast was 31.4 µM; in the test with MCF7 breast, 17.6 µM; with HL-60(TB) leukemia, above 21.1 µM; with CCRF-CEM leukemia, 46.7 µM; with COLO 205 colon it was 20.3 µM; in the test with HS 578T breast it was 29 µM. Also, the TGI was determined as 26.6 µM in the test with SK-MEL-28 melanoma; 22 µM in the test with SNB-19 CNS; 14.3 µM with NCI-H522 lung; 18.7 µM with A549 NSCLC; 37.2 µM in the test on K-562 leukemia; 19.1 µM in the test with HOP-62 NSCLC. Moreover, the TGI in the test on HT29 colon was determined as 14.2 µM; in the test on NCI-H226 lung it was 21.4 µM; with TK-10 renal, 16.4 µM.
With `C=C(C(=O)O)[C@@H]1C[C@@H]2O[C@H]1[C@@H](O)[C@@H](C)CCCC(C)=CCC[C@@]2(C)O`, the TGI in the test with T-47D breast, with MCF7 breast, in the test on HL-60(TB) leukemia, in the test on CCRF-CEM leukemia, in the test on COLO 205 colon and in the test on HS 578T breast was above 100 µM each time. In addition, the TGI in the test with SK-MEL-28 melanoma, with SNB-19 CNS, in the test with NCI-H522 lung, in the test with A549 NSCLC, in the test on K-562 leukemia and in the test with HOP-62 NSCLC was above 100 µM throughout. Besides, the TGI in the test on HT29 colon, in the test with NCI-H226 lung and in the test with TK-10 renal was above 100 µM throughout. Besides, the GI50 with HL-60(TB) leukemia was 10.5 µM and 32.5 µM; with NCI-H522 lung, 29.3 µM and 67.6 µM; with K-562 leukemia, 32.3 µM and 83.5 µM; in the test on HT29 colon, 32.4 µM and > 100 µM.
Regarding `Nc1nc(Cl)c(N)c(NCC2(CO)CC2)n1`, the TGI with T-47D breast, in the test with MCF7 breast, with HL-60(TB) leukemia, in the test on CCRF-CEM leukemia, in the test on COLO 205 colon and in the test on HS 578T breast was above 100 µM each time. Also, the TGI with SK-MEL-28 melanoma, in the test on SNB-19 CNS, with NCI-H522 lung, with A549 NSCLC, in the test with K-562 leukemia and with HOP-62 NSCLC was above 100 µM throughout. Also, the TGI in the test on HT29 colon, with NCI-H226 lung and in the test on TK-10 renal was above 100 µM in each case.
For `CC(C)CCC[C@@H](C)[C@H]1CC[C@H]2[C@@H]3CC[C@H]4C[C@@H](CCC=C(c5cc(Cl)c(O)c(C(=O)O)c5)c5cc(Cl)c(O)c(C(=O)O)c5)CC[C@]4(C)[C@H]3CC[C@]12C`, the TGI in the test on T-47D breast, in the test with MCF7 breast, with HL-60(TB) leukemia, with CCRF-CEM leukemia, in the test on COLO 205 colon and with HS 578T breast was above 100 µM throughout. Also, the TGI in the test on SK-MEL-28 melanoma, with SNB-19 CNS, in the test on NCI-H522 lung, with A549 NSCLC, in the test with K-562 leukemia and in the test with HOP-62 NSCLC was above 100 µM each time. Further, the TGI in the test with HT29 colon, in the test on NCI-H226 lung and with TK-10 renal was above 100 µM in each case.
